Measured values from ChEMBL document CHEMBL1201862, “PubChem BioAssay data set” (2004).
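A five-concentration, 48-hour dose response in 96-well plates underlies each endpoint, interpolated linearly between surrounding concentrations. The concentration for 50% growth inhibition is given as GI50.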 The source made the active and inactive calls. Rule as the data show it: active = GI50 up to about 1.1 µM and inactive = higher.

Experiments:
Assay in all cases: NCI tumour cell line growth inhibition, 48 h
NCI/ADR-RES = system: NCI/ADR-RES
OVCAR-8 = system: OVCAR-8
ACHN = system: ACHN
MDA-N = system: MDA-N
SF-295 = system: SF-295
CAKI-1 = system: CAKI-1
HCC 2998 = system: HCC 2998
EKVX = system: EKVX
786-0 = system: 786-0
A498 = system: A498
IGROV-1 = system: IGROV-1
MCF7 = system: MCF7
MOLT-4 = system: MOLT-4
NCI-H226 = system: NCI-H226
U-251 = system: U-251
RXF 393 = system: RXF 393
DU-145 = system: DU-145
NCI-H522 = system: NCI-H522
KM12 = system: KM12
MDA-MB-231 = system: MDA-MB-231

## Nc1ncnc2c1nc(O)n2-c1ccccc1
NCI/ADR-RES
  GI50: > 100 µM (inactive)
OVCAR-8
  GI50: > 100 µM (inactive)
ACHN
  GI50: > 100 µM (inactive)
MDA-N
  GI50: > 100 µM (inactive)
SF-295
  GI50: > 100 µM (inactive)
CAKI-1
  GI50: 78.9 µM (inactive)
HCC 2998
  GI50: > 100 µM (inactive)
EKVX
  GI50: 93.8 µM (inactive)
786-0
  GI50: > 100 µM (inactive)
A498
  GI50: > 100 µM (inactive)
IGROV-1
  GI50: > 100 µM (inactive)
MCF7
  GI50: > 100 µM (inactive)
MOLT-4
  GI50: > 100 µM (inactive)

## CN(Cc1cc(Cl)cc(Cl)c1)CC(C(=O)c1ccccc1)c1ccccc1 (stereo not drawn)
NCI-H226
  GI50: 5.5 µM (inactive)
NCI/ADR-RES
  GI50: 1.57 µM (inactive)
U-251
  GI50: 1.38 µM (inactive)
RXF 393
  GI50: 4 µM (inactive)
DU-145
  GI50: 4.69 µM (inactive)
NCI-H522
  GI50: 1.54 µM (inactive)
OVCAR-8
  GI50: 4.2 µM (inactive)
ACHN
  GI50: 0.445 µM (active)
SF-295
  GI50: 27 µM (inactive)
KM12
  GI50: 3.78 µM (inactive)
CAKI-1
  GI50: 1.03 µM (active)
EKVX
  GI50: 16.7 µM (inactive)
786-0
  GI50: 2.49 µM (inactive)
A498
  GI50: 14.5 µM (inactive)
IGROV-1
  GI50: 26.7 µM (inactive)
MDA-MB-231
  GI50: 6.81 µM (inactive)
MCF7
  GI50: 3.73 µM (inactive)
MOLT-4
  GI50: 0.684 µM (active)

## C=CCC(SC)C1=C(C)C(=O)c2ccccc21 (stereo not drawn)
NCI-H226
  GI50: > 10 µM (inactive)
U-251
  GI50: > 10 µM (inactive)
RXF 393
  GI50: > 10 µM (inactive)
DU-145
  GI50: > 10 µM (inactive)
OVCAR-8
  GI50: > 10 µM (inactive)
ACHN
  GI50: > 10 µM (inactive)
MDA-N
  GI50: > 10 µM (inactive)
SF-295
  GI50: > 10 µM (inactive)
KM12
  GI50: > 10 µM (inactive)
HCC 2998
  GI50: > 10 µM (inactive)
EKVX
  GI50: > 10 µM (inactive)
786-0
  GI50: > 10 µM (inactive)
A498
  GI50: > 10 µM (inactive)
IGROV-1
  GI50: > 10 µM (inactive)
MDA-MB-231
  GI50: > 10 µM (inactive)
MCF7
  GI50: > 10 µM (inactive)
MOLT-4
  GI50: > 10 µM (inactive)

## Cc1cc2c(c(/C=N/Cc3ccccc3)c1)OC1(C=C2)Oc2ccccc2C(=O)N1C (stereo not drawn)
NCI-H226
  GI50: 16 µM (inactive)
NCI/ADR-RES
  GI50: 20.2 µM (inactive)
U-251
  GI50: 29.4 µM (inactive)
RXF 393
  GI50: 20 µM (inactive)
DU-145
  GI50: 25.4 µM (inactive)
OVCAR-8
  GI50: 16.5 µM (inactive)
ACHN
  GI50: 20.7 µM (inactive)
SF-295
  GI50: 29.6 µM (inactive)
KM12
  GI50: 25.2 µM (inactive)
CAKI-1
  GI50: 16.6 µM (inactive)
HCC 2998
  GI50: 27.1 µM (inactive)
EKVX
  GI50: 15.3 µM (inactive)
786-0
  GI50: 29.4 µM (inactive)
A498
  GI50: 23.9 µM (inactive)
IGROV-1
  GI50: 22 µM (inactive)
MDA-MB-231
  GI50: 27.5 µM (inactive)
MCF7
  GI50: 28.9 µM (inactive)
MOLT-4
  GI50: 4.5 µM (inactive)

## Cc1cccc(Cl)c1NC(=O)/C=C/c1ccccc1
NCI-H226
  GI50: > 100 µM (inactive)
U-251
  GI50: 87.7 µM (inactive)
DU-145
  GI50: 67.6 µM (inactive)
NCI-H522
  GI50: 49.3 µM (inactive)
OVCAR-8
  GI50: 26.1 µM (inactive)
ACHN
  GI50: 42.3 µM (inactive)
MDA-N
  GI50: > 100 µM (inactive)
SF-295
  GI50: 36.6 µM (inactive)
KM12
  GI50: 74.5 µM (inactive)
CAKI-1
  GI50: 76.9 µM (inactive)
HCC 2998
  GI50: 74.6 µM (inactive)
EKVX
  GI50: 49.2 µM (inactive)
786-0
  GI50: 36.3 µM (inactive)
A498
  GI50: > 100 µM (inactive)
IGROV-1
  GI50: 97.5 µM (inactive)
MDA-MB-231
  GI50: 32.4 µM (inactive)
MCF7
  GI50: 32.5 µM (inactive)
MOLT-4
  GI50: > 100 µM (inactive)

## Cc1cccc(C)c1NC(=O)/C=C/c1ccccc1
NCI-H226
  GI50: 20.3 µM (inactive)
U-251
  GI50: > 100 µM (inactive)
DU-145
  GI50: > 100 µM (inactive)
NCI-H522
  GI50: 18.8 µM (inactive)
OVCAR-8
  GI50: 73.1 µM (inactive)
ACHN
  GI50: 15.4 µM (inactive)
MDA-N
  GI50: > 100 µM (inactive)
SF-295
  GI50: 88.5 µM (inactive)
KM12
  GI50: > 100 µM (inactive)
CAKI-1
  GI50: > 100 µM (inactive)
HCC 2998
  GI50: > 100 µM (inactive)
EKVX
  GI50: 67 µM (inactive)
786-0
  GI50: > 100 µM (inactive)
A498
  GI50: > 100 µM (inactive)
MDA-MB-231
  GI50: > 100 µM (inactive)
MCF7
  GI50: > 100 µM (inactive)
MOLT-4
  GI50: > 100 µM (inactive)

## C/C=N\n1c(C)n[nH]c1=O
NCI-H226
  GI50: > 100 µM (inactive)
NCI/ADR-RES
  GI50: > 100 µM (inactive)
U-251
  GI50: > 100 µM (inactive)
RXF 393
  GI50: > 100 µM (inactive)
DU-145
  GI50: > 100 µM (inactive)
NCI-H522
  GI50: > 100 µM (inactive)
OVCAR-8
  GI50: > 100 µM (inactive)
ACHN
  GI50: > 100 µM (inactive)
MDA-N
  GI50: > 100 µM (inactive)
SF-295
  GI50: > 100 µM (inactive)
KM12
  GI50: > 100 µM (inactive)
CAKI-1
  GI50: > 100 µM (inactive)
HCC 2998
  GI50: > 100 µM (inactive)
EKVX
  GI50: > 100 µM (inactive)
786-0
  GI50: > 100 µM (inactive)
A498
  GI50: > 100 µM (inactive)
IGROV-1
  GI50: > 100 µM (inactive)
MCF7
  GI50: > 100 µM (inactive)
MOLT-4
  GI50: > 100 µM (inactive)

## S=c1nc(Nc2ccc(Cl)cc2)c2c3c(sc2[nH]1)CCCC3
NCI-H226
  GI50: > 100 µM (inactive)
U-251
  GI50: > 100 µM (inactive)
RXF 393
  GI50: > 100 µM (inactive)
DU-145
  GI50: > 100 µM (inactive)
NCI-H522
  GI50: 37 µM (inactive)
ACHN
  GI50: 74.5 µM (inactive)
MDA-N
  GI50: > 100 µM (inactive)
SF-295
  GI50: > 100 µM (inactive)
KM12
  GI50: > 100 µM (inactive)
CAKI-1
  GI50: > 100 µM (inactive)
HCC 2998
  GI50: 43.4 µM (inactive)
EKVX
  GI50: > 100 µM (inactive)
786-0
  GI50: > 100 µM (inactive)
A498
  GI50: > 100 µM (inactive)
IGROV-1
  GI50: > 100 µM (inactive)
MDA-MB-231
  GI50: > 100 µM (inactive)
MCF7
  GI50: 90.2 µM (inactive)
MOLT-4
  GI50: 64.7 µM (inactive)

## C(=N\c1ccc(-c2nc3ccccc3s2)cc1)/c1ccc[nH]1
NCI-H226
  GI50: 14.8 µM (inactive)
NCI/ADR-RES
  GI50: 13.3 µM (inactive)
U-251
  GI50: 14.4 µM (inactive)
RXF 393
  GI50: 16 µM (inactive)
DU-145
  GI50: 17.3 µM (inactive)
NCI-H522
  GI50: 14.1 µM (inactive)
OVCAR-8
  GI50: 27.6 µM (inactive)
ACHN
  GI50: 20.7 µM (inactive)
MDA-N
  GI50: 18 µM (inactive)
SF-295
  GI50: 13.3 µM (inactive)
KM12
  GI50: 20.2 µM (inactive)
CAKI-1
  GI50: 22.8 µM (inactive)
HCC 2998
  GI50: 16.5 µM (inactive)
EKVX
  GI50: 17.2 µM (inactive)
786-0
  GI50: 21.9 µM (inactive)
A498
  GI50: 15.7 µM (inactive)
IGROV-1
  GI50: 15.1 µM (inactive)
MOLT-4
  GI50: 11.7 µM (inactive)

## COc1cccc(C23CCCC(C2)N(C)CC3OC(=O)c2ccccc2)c1OC (stereo not drawn)
NCI/ADR-RES
  GI50: 20.7 µM (inactive)
U-251
  GI50: 28.3 µM (inactive)
DU-145
  GI50: 36 µM (inactive)
NCI-H522
  GI50: 22.6 µM (inactive)
OVCAR-8
  GI50: 16.4 µM (inactive)
ACHN
  GI50: 32.7 µM (inactive)
MDA-N
  GI50: 16 µM (inactive)
SF-295
  GI50: 19.4 µM (inactive)
KM12
  GI50: 22.9 µM (inactive)
CAKI-1
  GI50: 42.4 µM (inactive)
HCC 2998
  GI50: 22.9 µM (inactive)
EKVX
  GI50: 24.5 µM (inactive)
786-0
  GI50: 32.7 µM (inactive)
A498
  GI50: 34.7 µM (inactive)
IGROV-1
  GI50: 15.6 µM (inactive)
MCF7
  GI50: 27.4 µM (inactive)
MOLT-4
  GI50: 18.4 µM (inactive)

## COC(=O)[C@H]1NC(=O)CCSSC1(C)C
NCI-H226
  GI50: > 100 µM (inactive)
NCI/ADR-RES
  GI50: > 100 µM (inactive)
U-251
  GI50: > 100 µM (inactive)
RXF 393
  GI50: > 100 µM (inactive)
DU-145
  GI50: > 100 µM (inactive)
NCI-H522
  GI50: > 100 µM (inactive)
OVCAR-8
  GI50: > 100 µM (inactive)
ACHN
  GI50: > 100 µM (inactive)
SF-295
  GI50: > 100 µM (inactive)
KM12
  GI50: > 100 µM (inactive)
CAKI-1
  GI50: > 100 µM (inactive)
EKVX
  GI50: > 100 µM (inactive)
786-0
  GI50: > 100 µM (inactive)
A498
  GI50: > 100 µM (inactive)
IGROV-1
  GI50: > 100 µM (inactive)
MDA-MB-231
  GI50: > 100 µM (inactive)
MCF7
  GI50: > 100 µM (inactive)
MOLT-4
  GI50: > 100 µM (inactive)

## CC1(C(=O)O)C[C@](C)(C(=O)OCc2ccccc2)C[C@](C)(C(=O)OCc2ccccc2)C1 (stereo partly drawn)
NCI-H226
  GI50: 27.3 µM (inactive)
NCI/ADR-RES
  GI50: 29.4 µM (inactive)
RXF 393
  GI50: 21.6 µM (inactive)
DU-145
  GI50: 29.8 µM (inactive)
NCI-H522
  GI50: 21.6 µM (inactive)
OVCAR-8
  GI50: 34.5 µM (inactive)
ACHN
  GI50: 22.9 µM (inactive)
MDA-N
  GI50: 36 µM (inactive)
SF-295
  GI50: 21.2 µM (inactive)
KM12
  GI50: 31.2 µM (inactive)
CAKI-1
  GI50: 25.4 µM (inactive)
HCC 2998
  GI50: 27 µM (inactive)
EKVX
  GI50: 25.1 µM (inactive)
786-0
  GI50: 32 µM (inactive)
IGROV-1
  GI50: 22.8 µM (inactive)
MCF7
  GI50: 34.1 µM (inactive)
MOLT-4
  GI50: 25.4 µM (inactive)
